Our source for the inhibition of growth values is ChEMBL document CHEMBL3046381, “Synthesis and Fungicidal Activity of New Six-membered Cyclic Phosphates” (1995).

The structures appear in SMILES notation.

Common to all, as to type: functional
Experiment [1] relates to Pythium. Briefly: Growth inhibition of Pythium sp. at 1000 ppm by agar dilution method. The conditions noted are these: read-out: GI. In general terms: In agar dilution, organisms are placed on agar that contains the substance at set levels.
Experiment [2] deals with Athelia rolfsii. Briefly: Growth inhibition of Athelia rolfsii at 100 ppm by agar dilution method. The settings on record: Agroathelia rolfsii; read-out: GI.
Experiment [3] concerns Pythium. Briefly: Growth inhibition of Pythium sp. at 100 ppm by agar dilution method. The conditions noted are these: read-out: GI.
Experiment [4] concerns Athelia rolfsii. Description: Growth inhibition of Athelia rolfsii at 1000 ppm by agar dilution method. The conditions noted are these: Agroathelia rolfsii; read-out: GI.
The test system of experiment [5] is Athelia rolfsii. Description: Growth inhibition of Athelia rolfsii at 10 ppm by agar dilution method. The settings on record: Agroathelia rolfsii; read-out: GI.
Experiment [6] has as its system Pythium. Description: Growth inhibition of Pythium sp. at 50 ppm by agar dilution method. The conditions noted are these: read-out: GI.
Experiment [7] has as its system Pythium. Briefly: Growth inhibition of Pythium sp. at 10 ppm by agar dilution method. The settings on record: read-out: GI.
Experiment [8] concerns Athelia rolfsii. Briefly: Growth inhibition of Athelia rolfsii at 50 ppm by agar dilution method. The conditions noted are these: Agroathelia rolfsii; read-out: GI.

Take `CC(C)c1ccc2c(c1)COP(=S)(OCCc1ccccc1)O2` (stereo not given): the inhibition of growth at 1000 ppm in the experiment with Pythium [1] and in the experiment with Athelia rolfsii [4] was 100% each time. The inhibition of growth at 100 ppm in the experiment with Athelia rolfsii [2] was 30.6%; in the experiment on Pythium [3], 74.6%.
Consider `CC(C)=CCCC(C)CCOP1(=S)OCc2ccccc2O1` (stereo not given), for which the inhibition of growth at 1000 ppm in the experiment with Pythium [1] was found to be 96%; in the experiment with Athelia rolfsii [4], 100%. The figures for the inhibition of growth at 100 ppm in the experiment with Athelia rolfsii [2] and in the experiment on Pythium [3] were 36.6% and 38.8%, respectively.
As for `C=CCc1ccc(OP2(=S)OCc3cc(C(C)C)ccc3O2)c(OC)c1` (stereo not given), the inhibition of growth at 1000 ppm in the experiment with Pythium [1] came to 83.9%; with Athelia rolfsii [4], 71.2%. In addition, the values for the inhibition of growth at 100 ppm with Athelia rolfsii [2] and in the experiment on Pythium [3] were 18.8% and 22.9%, respectively.
Turning to `Cc1ccc(OP2(=S)OCc3ccccc3O2)c(C(C)C)c1` (stereo not given), the inhibition of growth at 1000 ppm in the experiment with Pythium [1] is 80.8%; in the experiment with Athelia rolfsii [4] it was 83.3%. The inhibition of growth at 100 ppm worked out at 37.3% with Athelia rolfsii [2] and 0% in the experiment with Pythium [3].
In the case of `Cc1ccc(C(C)C)c(OP2(=S)OCc3ccccc3O2)c1` (stereo not given), the figures for the inhibition of growth at 1000 ppm in the experiment on Pythium [1] and with Athelia rolfsii [4] were 100% and 99.8%, respectively. Besides, the inhibition of growth at 100 ppm with Athelia rolfsii [2] worked out at 27.7%; with Pythium [3], 45.2%.
On the same counts, the results for `Cc1ccc(C(C)C)c(OP2(=S)OCc3ccccc3O2)c1Cl` (stereo not given) are 97.4%, 85.5%, 12.3% and 27.9%.
As for `C=CCc1ccc(OP2(=S)OCc3ccccc3O2)c(OC)c1` (stereo not given), the inhibition of growth at 1000 ppm was determined as 87.4% with Pythium [1] and 100% in the experiment on Athelia rolfsii [4]. Besides, the inhibition of growth at 100 ppm in the experiment with Athelia rolfsii [2] is 25.5%; in the experiment with Pythium [3] it was 28.6%.
For the compound `O=P1(Oc2ccccc2)OCc2ccccc2O1` (stereo not given), the inhibition of growth at 1000 ppm in the experiment on Pythium [1] was 100%; with Athelia rolfsii [4], 88.7%. For the same compound, the inhibition of growth at 100 ppm in the experiment with Athelia rolfsii [2] amounted to 2.1%; in the experiment with Pythium [3], 76%.
On the same counts, the results for `S=P1(OCCc2ccccc2)OCc2ccccc2O1` (stereo not given) are 100%, 100%, 81.6% and 70.1%.
For `CCCCCCCOP1(=S)OCc2ccccc2O1` (stereo not given) the same measures were 100%, 100%, 52.6% and 42.4%.
For `CCCCCCCCCCCOP1(=S)OCc2ccccc2O1` (stereo not given), the figures for the inhibition of growth at 1000 ppm with Pythium [1] and in the experiment on Athelia rolfsii [4] were 100% and 88.1%, respectively. Further, the inhibition of growth at 100 ppm in the experiment with Athelia rolfsii [2] amounted to 25%; in the experiment on Pythium [3], 0%.
Turning to `CCCCCCCCCCCCCOP1(=S)OCc2ccccc2O1` (stereo not given), the inhibition of growth at 1000 ppm in the experiment on Pythium [1] and in the experiment with Athelia rolfsii [4] was 100% in each case. Also, the figures for the inhibition of growth at 100 ppm in the experiment with Athelia rolfsii [2] and in the experiment on Pythium [3] were 3.1% and 6.3%, respectively.
As for `CCCCCCCCCCCCCCCOP1(=S)OCc2ccccc2O1` (stereo not given), the results for the inhibition of growth at 1000 ppm in the experiment with Pythium [1] and with Athelia rolfsii [4] were 86% and 32.3%, respectively. In addition, the inhibition of growth at 100 ppm in the experiment with Athelia rolfsii [2] came out at 6%; in the experiment on Pythium [3], 24.9%.
In the case of `CCc1ccc2c(c1)COP(=S)(OC)O2` (stereo not given), the inhibition of growth at 10 ppm worked out at 24.6% in the experiment on Athelia rolfsii [5] and 1.9% in the experiment on Pythium [7]. The inhibition of growth at 1000 ppm is 96% in the experiment with Pythium [1] and 100% in the experiment on Athelia rolfsii [4]. Moreover, the inhibition of growth at 50 ppm is 64.4% with Pythium [6] and 92.4% with Athelia rolfsii [8]. In addition, the inhibition of growth at 100 ppm with Athelia rolfsii [2] is 100%; in the experiment on Pythium [3], 91.1%.
With `CCc1ccc2c(c1)COP(=O)(Oc1ccccc1)O2` (stereo not given), the values for the inhibition of growth at 10 ppm in the experiment on Athelia rolfsii [5] and in the experiment with Pythium [7] were 26.6% and 38.5%, respectively. Also, the inhibition of growth at 1000 ppm was 98.7% in the experiment on Pythium [1] and 100% with Athelia rolfsii [4]. Further, the inhibition of growth at 50 ppm in the experiment on Pythium [6] was 78.6%; in the experiment on Athelia rolfsii [8], 57.6%. Besides, the inhibition of growth at 100 ppm in the experiment on Athelia rolfsii [2] came to 100%; with Pythium [3], 89.1%.
`CCc1ccc2c(c1)COP(=S)(Oc1ccc(C)cc1C(C)C)O2` (stereo not given): the inhibition of growth at 1000 ppm with Pythium [1] and in the experiment on Athelia rolfsii [4] was 100% throughout. Further, the inhibition of growth at 100 ppm in the experiment on Athelia rolfsii [2] is 88.6%; in the experiment on Pythium [3], 49.5%.
Consider `CCc1ccc2c(c1)COP(=S)(Oc1cc(C)ccc1C(C)C)O2` (stereo not given), for which the results for the inhibition of growth at 1000 ppm in the experiment with Pythium [1] and in the experiment with Athelia rolfsii [4] were 96.8% and 100%, respectively. The inhibition of growth at 100 ppm is 30.4% in the experiment with Athelia rolfsii [2] and 41.7% with Pythium [3].
`CCc1ccc2c(c1)COP(=S)(OCCc1ccccc1)O2` (stereo not given): the inhibition of growth at 1000 ppm in the experiment with Pythium [1] and in the experiment on Athelia rolfsii [4] was 100% in each case. For the same compound, the inhibition of growth at 100 ppm was 57% in the experiment with Athelia rolfsii [2] and 95.4% in the experiment with Pythium [3].
As to `COP1(=S)OCc2cc(C(C)C)ccc2O1` (stereo not given), the inhibition of growth at 10 ppm was determined as 62% in the experiment with Athelia rolfsii [5] and 0% in the experiment on Pythium [7]. The inhibition of growth at 1000 ppm is 82.6% in the experiment on Pythium [1] and 100% in the experiment on Athelia rolfsii [4]. The inhibition of growth at 50 ppm in the experiment on Pythium [6] was determined as 50%; with Athelia rolfsii [8], 92.5%. Also, the inhibition of growth at 100 ppm is 96.9% in the experiment on Athelia rolfsii [2] and 71.1% with Pythium [3].
Take `Cc1ccc(OP2(=S)OCc3cc(C(C)C)ccc3O2)c(C(C)C)c1` (stereo not given): the inhibition of growth at 1000 ppm came out at 85.9% with Pythium [1] and 71.3% with Athelia rolfsii [4]. For the same compound, the results for the inhibition of growth at 100 ppm in the experiment with Athelia rolfsii [2] and in the experiment with Pythium [3] were 62.5% and 26.8%, respectively.
Consider `Cc1ccc(C(C)C)c(OP2(=S)OCc3cc(C(C)C)ccc3O2)c1` (stereo not given), for which the inhibition of growth at 1000 ppm in the experiment with Pythium [1] is 85.9%; in the experiment with Athelia rolfsii [4], 84.6%. The inhibition of growth at 100 ppm with Athelia rolfsii [2] was 61.9%; in the experiment on Pythium [3], 33.8%.
For `COP1(=S)OCc2ccccc2O1` (stereo not given) [SALITHION] the same measures were 100%, 100%, 60.7% and 74.8%.
